# Like-named read-outs stand apart in the source and are kept apart here.
# B1: sIL13Rα2.Fc: soluble IL-13 receptor fusion protein, a soluble IL-13 antagonist (protein)
# chain: DTEIKVNPPQDFEIVDPGYLGYLYLQWQPPLSLDHFKECTVEYELKYRNIGSETWKTIITKNLHYKDGFDLNKGIEAKIHTLLPWQCTNGSEVQSSWAETTYWISPQGIPETKVQDMDCVYYNWQYLLCSWKPGIGVLLDTNYNLFYWYEGLDHALQCVDYIKADGQNIGCRFPYLEASDYKDFYICVNGSSENKPIRSSYFTFQLQNIVKPLPPVYLTFTRESSCEIKLKWSIPLGPIPARCFDYEIEIREDDTTLVTATVENETYTLKTTNETRQLCFVVRSKVNIYCSDDGIWSEWSDKQCWEGEDLSKKTLLR
# modifications: left off: a dimerising Fc or GST
# notes: soluble IL-13 receptor fusion protein, a soluble IL-13 antagonist
# Columns and labels:
# arginase [1] = assay: arginase activity of murine macrophages (hydrolysis of L-arginine to L-ornithine); assay type: cell-based; details: unstimulated murine macrophages
# Text: Stimulation of murine macrophages with interferon-gamma and lipopolysaccharide (IFN-gamma+LPS) results in clear expression of an inducible NOS (iNOS) and to an increase in arginase activity.
# arginase [2] = details: IFN-gamma+LPS-stimulated macrophage; cited from earlier work
# arginase [3] = details: read-out: IC50 hydrolysis of L-arginine to L-ornithine; unstimulated murine macrophages (Tenu et al.); cited from earlier work
# iNOS = iNOS (Mus musculus, UniProt P29477); details: cited from earlier work
# arginase [4] = assay: arginase activity in internal anal sphincter
# arginase [5] = details: intact cells; cited from earlier work
# IL-13 [6] = assay: OVA-challenge asthma model: mucus production and airway hyperresponsiveness; assay type: in vivo, mouse; details: FIG. 12 legend
# Text: It is generally accepted that allergic asthma is initiated by an inappropriate inflammatory reaction to airborne allergens. […] One murine model of asthma involves sensitization of the animal to ovalbumin (OVA) followed by intratracheal delivery of the OVA challenge. […] The cytokine IL-13, expressed by basophils, mast cells, activated T cells and NK cells, plays a central role in the inflammatory response to OVA in mouse lungs. […] Thus, IL-13 mediated signaling is sufficient to elicit all four asthma-related pathophysiological phenotypes and is required for the hypersecretion of mucous and induced AHR in the mouse model.
# FIG. 12 is a graphical representation showing that ARG1 mRNA expression increases following direct pulmonary instillation of rIL-13 or intratracheal Ovalbumin allergen challenge. Blockade of IL-13 signaling by administration of sIL13Rα2.Fc inhibits 67% of induced Arg1 mRNA expression. Blockade of IL-13 using the soluble receptor sIL13Rα2.Fc inhibits the allergen induced mucus production and airway hyperresponsiveness (AHR).
# IL-13 [7] = details: mouse model, background; cited from earlier work
# IL-13 [8] = assay: lung ARG1 mRNA expression after ovalbumin allergen challenge; assay type: in vivo, Balb/c mice; details: mouse lung
# Method: Balb/c mice were immunized by an intraperitoneal (i.p.) injection of 10 μg of OVA (Sigma, St. Louis, Mo.) in 200 μl of PBS on day 0. On days 14 and 25 mice were anesthetized with a mixture of ketamine and xylazine (45 and 8 mg/kg, respectively) and challenged intratracheally with 50 μl of a 1.5% solution of OVA or an equivalent volume of PBS. Mice were injected i.p. either with 100 μl of PBS, hIgG (400 μg/ml) or sIL-13α2-Fc (400 μg/ml) on days 24, 25 and 27. Purification of hIgG was carried according to Urban et al., Immunity 8(2): […], 1998. Lungs were collected and snap frozen for RNA isolation on day 28.
# To identify changes in mRNA concentration dependent on IL-13 mediated signal transduction, two of the OVA-challenged mice were treated with three intraperitoneal injections of the soluble IL-13 receptor fusion protein, sIL-13Rα2-Fc, prior to and during the course of the allergic challenge. As control for the Fc-moiety of the receptor fusion protein, two of the OVA-challenged mice were similarly treated with intraperitoneal administration of hIgG. […]
# Balb/C-treated and untreated mice were sensitized to OVA, treated with PBS, rIL-13 or sIL13Rα2.Fc as described in FIG. 1. Total lung RNA was isolated and analyzed for ARG1 expression as described in Example 2. The mRNA frequency is expressed as parts per million.
molecule,measurement,setting,value
"N=C(NO)NCC[C@H](N)C(=O)O [nor-NOHA, N(omega)-hydroxy-L-nor-arginine]",potency relative to L-NOHA,arginase [1],about 40 fold
same,IC50,arginase [2],10 µM
same,IC50,arginase [3],12 µM
same,substrate or inhibitor for iNOS,iNOS,neither a substrate nor an inhibitor
"N[C@@H](CCCCB(O)O)C(=O)O [ABH, 2(S)-amino-6-boronohexanoic acid]",potency relative to L-NOHA in inhibiting arginase activity,arginase [4],approximately 250 times
"NCCC[C@](N)(C(=O)O)C(F)F [DFMO, α-difluoromethylornithine]",effect on the flux of L-arginine through arginase,arginase [5],inhibitive effect
B1,allergen induced mucus production and airway hyperresponsiveness (AHR),IL-13 [6],inhibits
same,OVA-challenge induced goblet cell mucus synthesis and AHR to acetylcholine,IL-13 [7],completely blocked
same,inhibition of induced Arg1 mRNA expression,IL-13 [8],67%
